Data on 3 compounds can be found in publication PMC6375636, “Monotherapy with a low-dose lipopeptide HIV fusion inhibitor maintains long-term viral suppression in rhesus macaques” (PLoS Pathogens, 2019).

Peptide text beside a SMILES is read from it. * marks the point of attachment. Stearoyl = CCCCCCCCCCCCCCCCCC(=O)*; Palmitoyl = CCCCCCCCCCCCCCCC(=O)*

For series [1] the following is noted: lipopeptide alone, 10 μM in PBS, representative of 2 assays; for Helix content (%): [θ]222 / -33,000.
Series [2] concerns the target T1, HIV-1HXB2 Env (Human immunodeficiency virus type 1 group M subtype B, UniProt P04578).
T1 construct: HL2/3 cells, which stably express high levels of Env, Gag, Tat, Rev, and Nef proteins of the integrated HIV-1 molecular clone HXB2/3gpt; host or cells: HL2/3 cells (effector), cocultured with TZM-bl target cells
Briefly: HIV-1HXB2 Env-mediated cell-cell fusion (HL2/3 effector, TZM-bl target, luciferase reporter). It counts as cell-based. How it is done:
The inhibitory activities of inhibitors on HIV-1HXB2 Env-mediated cell-cell fusion were determined by a reporter gene assay based on the activation of an HIV LTR-driven luciferase cassette in TZM-bl cells (target) by HIV-1 tat from HL2/3 cells (effector). Briefly, 1 x 10^4/well of TZM-bl cells were plated in 96-well plates and incubated at 37°C overnight. Then, 3 x 10^4/well of HL2/3 cells were cocultured with target cells for 6 h at 37°C in the presence or absence of an inhibitor at graded concentrations. Luciferase activity was measured using luciferase assay reagents and a Luminescence Counter (Promega, Madison, Wisconsin, USA).
A general note: In a reporter assay the amount or activity of a reporter protein is the signal.

Series [3] concerns the target T2, gp41 NHR-derived target mimic peptide N39 (Human immunodeficiency virus type 1 group M subtype B, UniProt P04578).
T2 construct: the gp41 NHR-derived target mimic peptide N39
Briefly: CD spectroscopy of lipopeptides in complex with target mimic peptide N39. More on the design: [θ]222: unit not given here. The conditions noted are these: complex with N39, each peptide 10 μM in PBS; representative of 2 assays. It counts as binding, HIV-1. The source says: Spectra were corrected by subtracting a solvent blank.

Series [4] has as its system NL4-3V38M pseudovirus. It counts as cell-based, HIV-1. The following applies: T-20 resistant, mean ± SD of 3 assays in triplicate. The method, then:
(§1) The inhibitory activities of inhibitors against HIV-1 pseudoviruses and replication-competent isolates were measured as described previously. Briefly, HIV-1 pseudoviruses were generated via the cotransfection of HEK293T cells with an Env-expressing plasmid and a backbone plasmid that encodes Env-defective, luciferase-expressing HIV-1 genome (pSG3Δenv). Viral stocks of replication-competent HIV-1 isolates were generated by transfecting viral molecular clones into HEK293T cells. […] Inhibitors were prepared in 3-fold dilutions, mixed with 100 TCID50 of a virus, and then incubated for 1 h at room temperature. […] Luciferase activity was measured as described above.

The test system of series [5] is NL4-3WT pseudovirus. It counts as cell-based, HIV-1. The following applies: T-20 resistant, mean ± SD of 3 assays in triplicate, value in parentheses behind the bound. The method, then:
as §1

The test system of series [6] is NL4-3N43K pseudovirus. It counts as cell-based, HIV-1. The conditions noted are these: T-20 resistant, mean ± SD of 3 assays in triplicate. The method, then:
as §1

Series [7] relates to NL4-3I37T/N43K pseudovirus. It counts as cell-based, HIV-1. The following applies: T-20 resistant, mean ± SD of 3 assays in triplicate. The method, then:
as §1

The test system of series [8] is NL4-3I37T pseudovirus. It counts as cell-based, HIV-1. The conditions noted are these: T-20 resistant, mean ± SD of 3 assays in triplicate. How it is done:
as §1

Series [9] has as its system NL4-3Q40H pseudovirus. It counts as cell-based, HIV-1. The conditions noted are these: T-20 resistant, mean ± SD of 3 assays in triplicate. The method, then:
as §1

Series [10] concerns NL4-3V38A pseudovirus. It counts as cell-based, HIV-1. The conditions noted are these: T-20 resistant, mean ± SD of 3 assays in triplicate. How it is done:
as §1

Series [11] has as its system NL4-3V38A/N42T pseudovirus. It counts as cell-based, HIV-1. The conditions noted are these: T-20 resistant, mean ± SD of 3 assays in triplicate. How it is done: as §1
Series [12] deals with NL4-3G36S/V38M pseudovirus. It counts as cell-based, HIV-1. The following applies: T-20 resistant, mean ± SD of 3 assays in triplicate. How it is done:
as §1

T2 sequence (P04578 528-566): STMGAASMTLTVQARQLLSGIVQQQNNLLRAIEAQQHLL
T1 sequence (P04578 512-856): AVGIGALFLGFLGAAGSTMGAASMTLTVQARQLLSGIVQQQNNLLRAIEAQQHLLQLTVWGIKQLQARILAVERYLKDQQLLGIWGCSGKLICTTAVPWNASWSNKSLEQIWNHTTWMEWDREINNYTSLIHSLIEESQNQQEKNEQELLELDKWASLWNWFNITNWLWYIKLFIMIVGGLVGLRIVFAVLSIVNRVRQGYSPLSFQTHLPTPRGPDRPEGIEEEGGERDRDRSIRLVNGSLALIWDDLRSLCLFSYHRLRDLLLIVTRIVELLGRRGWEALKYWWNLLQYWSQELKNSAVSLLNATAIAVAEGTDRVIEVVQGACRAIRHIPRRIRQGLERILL

The IC50 is the concentration needed to halve the response being measured. Regarding `CCCCCCCCCCCCCCCC(=O)NCCCC[C@H](NC(=O)[C@H](CCC(=O)O)NC(=O)[C@H](CC(C)C)NC(=O)[C@H](CCCCN)NC(=O)[C@H](CCCCN)NC(=O)[C@H](CC(C)C)NC(=O)[C@H](CCC(=O)O)NC(=O)[C@H](CCC(=O)O)NC(=O)[C@H](CCC(=O)O)NC(=O)[C@H](CC(N)=O)NC(=O)[C@H](CCCCN)NC(=O)[C@H](CCCCN)NC(=O)[C@H](CCC(N)=O)NC(=O)[C@H](CCC(N)=O)NC(=O)[C@H](CCC(=O)O)NC(=O)[C@H](CCC(=O)O)NC(=O)[C@H](C)NC(=O)[C@H](CCCCN)NC(=O)[C@H](CCCCN)NC(=O)[C@H](CC(C)C)NC(=O)[C@H](CC(C)C)NC(=O)[C@H](CCC(=O)O)NC(=O)[C@H](CCC(=O)O)NC(=O)[C@@H](NC(=O)[C@H](CCCCN)NC(=O)[C@H](CCC(N)=O)NC(=O)[C@H](CCC(=O)O)NC(=O)[C@H](Cc1c[nH]c2ccccc12)NC(C)=O)[C@@H](C)CC)C(N)=O` [LP-52, reference compound] (Ac-WEQKIEELLKKAEEQQKKNEEELKKLEK(Palmitoyl)-NH2), the “[θ]222” value in [1] (room temperature) is given as -14952 degree.cm^2.dmol^-1; in series [3], -21060. Moreover, the “Helix content (%)” value was found to be 45% in [1] and 64% in series [3]. In addition, the “Tm (°C)” value in [1] (ellipticity at 222 nm, 20-98°C, 2°C/min) stood at 56 °C. In addition, half-maximal inhibition in [2] (IC50) required 0.0187 ± 0.00301 nM.

With `CCCCCCCCCCCCCCCCCC(=O)NCCCC[C@H](NC(=O)[C@H](CCC(=O)O)NC(=O)[C@H](CC(C)C)NC(=O)[C@H](CCCCN)NC(=O)[C@H](CCCCN)NC(=O)[C@H](CC(C)C)NC(=O)[C@H](CCC(=O)O)NC(=O)[C@H](CCC(=O)O)NC(=O)[C@H](CCC(=O)O)NC(=O)[C@H](CC(N)=O)NC(=O)[C@H](CCCCN)NC(=O)[C@H](CCCCN)NC(=O)[C@H](CCC(N)=O)NC(=O)[C@H](CCC(N)=O)NC(=O)[C@H](CCC(=O)O)NC(=O)[C@H](CCC(=O)O)NC(=O)[C@H](C)NC(=O)[C@H](CCCCN)NC(=O)[C@H](CCCCN)NC(=O)[C@H](CC(C)C)NC(=O)[C@H](CC(C)C)NC(=O)[C@H](CCC(=O)O)NC(=O)[C@H](CCC(=O)O)NC(=O)[C@@H](NC(C)=O)[C@@H](C)CC)C(N)=O` [LP-90] (Ac-IEELLKKAEEQQKKNEEELKKLEK(Stearoyl)-NH2), the “Helix content (%)” value in [1] was 30%; in [3], 42%. Further, the IC50 in series [4] was 4.32 ± 0.78 nM; in [5] it was 0.03 nM; in series [6], 5.05 ± 0.13 nM; in series [7], 0.0463 ± 0.00079 µM; in series [8], 0.51 ± 0.09 nM; in [9], 4.17 ± 0.14 nM. Also, the IC50 came to 8.25 ± 0.55 nM in series [10], 0.0492 ± 0.00219 µM in series [11], 2.37 ± 0.39 nM in [12] and 0.0163 nM in series [2]. In addition, in [3], the “[θ]222” value is reported as -13989.

Regarding “enfuvirtide [Lipopeptide T-20, reference compound]”, the IC50 turned out to be 1050 ± 74.8 nM in series [4]; 166 ± 19 nM in series [5]; 748 ± 41.9 nM in [6]; 6.95 ± 1.14 µM in [7]; 1220 ± 120 nM in series [8]; 1150 ± 88 nM in series [9]. For the same compound, the IC50 stood at 2240 ± 33.1 nM in [10], 5.95 ± 0.7 µM in [11] and 317.3 ± 1.65 nM in series [12].
